Assays:
Format in all cases: cell-based, human
SLAMF7-RPMI = assay: IFN-gamma ELISA, CAR T cells cultured overnight with SLAMF7-RPMI target cells
Description: (§1) MM.1S is a SLAMF7^+ multiple myeloma cell line that was obtained from American Type Culture Collection (ATCC). A549 is a BCMA-negative lung cancer cell line (ATCC). TC71 is a BCMA-negative sarcoma cell line. CCRF-CEM, 293T, and A549 are SLAMF7-negative cell lines (ATCC). COL0207, HepG2, U251, Panc10.05, and TC71 are […] that were kind gifts from Dr. Steven Rosenberg, National Cancer Institute. SLAMF7-K562 are K562 cells (ATCC) which were transduced with the gene for full-length SLAMF7. SLAMF7-RPMI are RPMI8226 cells (ATCC) which were transduced with the gene for full-length SLAMF7. NGFR-K562 are K562 cells which were transduced with the gene for low-affinity nerve growth factor (Kochenderfer et al., J. Immunother., 32(7): 689-702 (2009)). All of the human samples mentioned were obtained from patients enrolled in IRB-approved clinical trials at the National Cancer Institute.
(§2) One-hundred thousand SLAMF7^+ or SLAMF7-negative target cells were combined with 100,000 CAR-transduced T cells in duplicate wells of a 96 well round bottom plate in 200 µL of AIM V™ medium (Invitrogen) plus 5% human serum. The plates were incubated at 37° C. for 18-20 hours. Following the incubation, ELISAs (enzyme-linked immunosorbent assays) for IFNγ were performed by using standard methods.
The T cells columns indicate whether T cells were transduced with Luc90-CD828Z, Luc63-CD828Z, or were untransduced. The % CAR^+ in Table B-1 was determined by staining the T cells with Protein L. Except for the % CAR^+ column, all values are pg/mL of IFN-gamma. T cells that were either untransduced or transduced with one of the indicated CARs were cultured with target cells overnight and a standard IFN-gamma ELISA was performed on the culture supernatant.
(§3) All values are pg/mL of IFN-gamma. T cells that were either untransduced or transduced with one of the indicated CARs were cultured with target cells overnight, and a standard IFN-gamma ELISA was performed on the culture supernatant.
The values in the cells are pg/mL of IFN-gamma. T cells that were either untransduced or transduced with one of the indicated CARs were cultured with target cells overnight, and a standard IFN-gamma ELISA was performed on the culture supernatant. The concentrations of 0, 50, or 200 ng/mL at the top of each column indicates the concentration of soluble SLAMF7 added to all T cell plus target cell overnight cultures in that column. The soluble SLAMF7 was added at the beginning of the overnight culture.

HepG2 = assay: IFN-gamma ELISA, CAR T cells with HepG2 target cells; settings: Table B-1
Description: as §1
(§4) One-hundred thousand SLAMF7^+ or SLAMF7-negative target cells were combined with 100,000 CAR-transduced T cells in duplicate wells of a 96 well round bottom plate in 200 µL of AIM V™ medium (Invitrogen) plus 5% human serum. […]
(§5) The T cells columns indicate whether T cells were transduced with Luc90-CD828Z, Luc63-CD828Z, or were untransduced. The % CAR^+ in Table B-1 was determined by staining the T cells with Protein L. Except for the % CAR^+ column, all values are pg/mL of IFN-gamma. […]

TC71 = assay: IFN-gamma ELISA, CAR T cells with TC71 target cells; settings: Table B-2
Description: as §1, §4, §5

H929 = assay: IFN-gamma ELISA, CAR T cells with H929 target cells; settings: Table C
Description: as §2, §3

SLAMF7^+ target cells = assay: IFN-gamma ELISA and functional assays
Description: as §2
CAR-expressing T cells cultured alone produced very low levels of IFNγ. IFNγ production of T cells expressing a CAR with a 4-1BB moiety, Luc90-CD8BBZ, was compared to IFNγ production of T cells expressing Luc90-CD828Z (Table C). […] Low levels of soluble SLAMF7 are found in the serum of some MM patients (see Tai, et al., Blood, 112(4): 1329-1337 (2008)). IFNγ ELISA assays were conducted to determine if adding SLAMF7 to cultures of anti-SLAMF7 CAR T cells plus target cells could block IFNγ release by the CAR T cells (Table D). IFNγ release by the CART cells was used as a measure recognition of the SLAMF7^+ target cells by the CAR T cells. The concentrations of soluble SLAMF7 added to the cultures were similar to those found in the blood of patients. Blocking of SLAMF7^+ target cell recognition by the soluble SLAMF7 was not observed. Also, activation of the anti-SLAMF7 CAR T cells by the soluble SLAMF7 was not observed.

SLAMF7^+ MM.1S cells = assay: CD107a degranulation assay; settings: CD4^+ and CD8^+ T cells, cultured with MM.1S versus NGFR-K562, 4 hours
Description: For each T cell culture that was tested, two tubes were prepared. One tube contained MM.1S cells, and the other tube contained NGFR-K562 cells. Both tubes contained CAR-transduced T cells, 1 ml of AIM V™ medium (Invitrogen) plus 5% human AB serum, a titrated concentration of an anti-CD107a antibody (eBioscience, clone eBioH4A3, ThermoFisher Scientific), and 1 μL of GOLGISTOP™ (a protein transport inhibitor containing monensin, BD Biosciences). All tubes were incubated at 37° C. for 4 hours and then stained for CD3, CD4, and CD8.

Luc90-CD828Z: anti-SLAMF7 CAR (SEQ ID NO: 27): murine Luc90 scFv, human CD8a hinge and TM, CD28 and CD3ζ domains; tested as transduced T cells
IFN-gamma, target cells SLAMF7-RPMI (SLAMF7-RPMI; Table B-1, overnight culture, ELISA on supernatant): 21293 pg/mL | IFN-gamma, target cells SLAMF7-RPMI8226 (SLAMF7-RPMI; Table C, overnight culture): 20832 pg/mL | IFN-gamma, target cells SLAMF7 RPMI 0 ng/ml (SLAMF7-RPMI; Table D, soluble SLAMF7 added 0 ng/ml): 23538 pg/mL | IFN-gamma, target cells SLAMF7 RPMI 50 ng/ml (SLAMF7-RPMI; Table D, soluble SLAMF7 added 50 ng/ml): 23.315 ng/mL | IFN-gamma, target cells CD319 RPMI 200 ng/ml (SLAMF7-RPMI; Table D, soluble SLAMF7 added 200 ng/ml): 21301 pg/mL | IFN-gamma, target cells HepG2 (HepG2): 24 pg/mL | IFN-gamma, target cells TC71 (TC71): 82 pg/mL | IFN-gamma, target cells H929 (H929): 531 pg/mL | function of T cells expressing the CAR, overall comparison (SLAMF7^+ target cells; ELISA assays and CD107a degranulation experiments, versus huLuc63-CD828Z): superior | SLAMF7-specific IFNγ release, comparison of CARs (SLAMF7^+ target cells; Luc90-CD828Z versus huLuc63-CD828Z, most experiments): greater | CD107a upregulation (degranulation) (SLAMF7^+ MM.1S cells): degranulated

Source: patent US11951131B2, “Anti-SLAMF7 chimeric antigen receptors” (The United States of America, as represented by the …, priority 2018, dated 2024)
